The results in this text go back to patent US7329649B2, “Combinatorial methods for inducing cancer cell death” (The Trustees of Columbia University in the City of New York, priority 2001, dated 2008).

This data set deals with mutated or wild type K-ras expressing pancreatic carcinoma cells. Briefly: Cell growth and viable cell numbers (hemocytometer, MTT). Type of data set: cell-based, human. As for the experimental part: FIG. 5. […] Cells were treated with the indicated agents for three days and viable cell counts were determined by hemocytometer.
Cell lines, culture conditions and growth assays.

“MM PS ODN: mismatched K-ras PS ODN CACTTGCAAATATTCAGT (SEQ ID NO:16) (DNA, all phosphorothioate, methylation of C not given here)”: the “growth suppression compared with AS K-ras PS ODN” value is reported as “significantly less growth suppression”.

Regarding “SC PS ODN: scrambled K-ras PS ODN ACTAGCTATACTAGCTAT (SEQ ID NO:17) (DNA, all phosphorothioate, methylation of C not given here)”, the “growth suppression compared with AS K-ras PS ODN” value is recorded as “significantly less growth suppression”.
